Measurements reported in PMC11984407, “A natural small molecule isoginkgetin alleviates hypercholesterolemia and atherosclerosis by targeting ACLY” (Theranostics, 2025).

How the values were obtained:
ACLY [1] = target: T1, ACLY (Mus musculus, UniProt Q91V92); assay: ACLY activity in vivo, mouse liver extracts (MDH-coupled method); design: from tissue; host or cells: liver of Apoe-/- mice dosed with ISOGK; details: male and female Apoe-/- mice, 20 mg/kg/day, 8 weeks
T1 sequence (Q91V92 1-1091): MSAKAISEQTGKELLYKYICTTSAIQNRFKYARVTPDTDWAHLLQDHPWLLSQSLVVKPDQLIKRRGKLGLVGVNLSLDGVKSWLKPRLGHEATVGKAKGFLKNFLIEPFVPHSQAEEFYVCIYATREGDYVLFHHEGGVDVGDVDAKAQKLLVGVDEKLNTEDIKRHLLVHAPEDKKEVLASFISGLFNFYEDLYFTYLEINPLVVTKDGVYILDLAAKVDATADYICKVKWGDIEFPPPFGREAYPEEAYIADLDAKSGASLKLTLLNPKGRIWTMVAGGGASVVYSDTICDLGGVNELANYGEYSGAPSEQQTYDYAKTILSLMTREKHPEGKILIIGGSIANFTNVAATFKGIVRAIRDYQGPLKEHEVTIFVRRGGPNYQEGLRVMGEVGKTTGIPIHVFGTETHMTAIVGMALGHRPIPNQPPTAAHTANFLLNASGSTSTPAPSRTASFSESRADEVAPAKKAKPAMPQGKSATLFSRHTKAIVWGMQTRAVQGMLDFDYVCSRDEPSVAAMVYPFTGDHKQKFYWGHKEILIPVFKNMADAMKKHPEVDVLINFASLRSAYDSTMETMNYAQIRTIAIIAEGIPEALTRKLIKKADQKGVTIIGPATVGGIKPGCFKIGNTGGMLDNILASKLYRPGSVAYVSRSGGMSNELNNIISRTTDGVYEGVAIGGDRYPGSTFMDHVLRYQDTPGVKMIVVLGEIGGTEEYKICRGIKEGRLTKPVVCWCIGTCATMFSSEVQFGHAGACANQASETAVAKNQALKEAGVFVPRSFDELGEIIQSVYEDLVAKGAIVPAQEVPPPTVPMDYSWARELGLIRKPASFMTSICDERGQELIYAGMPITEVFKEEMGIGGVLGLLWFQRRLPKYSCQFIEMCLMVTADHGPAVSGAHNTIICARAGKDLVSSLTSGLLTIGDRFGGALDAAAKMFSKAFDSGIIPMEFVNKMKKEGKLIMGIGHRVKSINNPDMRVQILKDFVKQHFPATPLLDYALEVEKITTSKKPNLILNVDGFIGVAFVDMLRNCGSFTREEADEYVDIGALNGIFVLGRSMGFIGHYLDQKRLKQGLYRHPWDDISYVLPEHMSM
Method: The activity of the ACLY enzyme was assayed utilizing malate dehydrogenase (MDH)-coupled method kits (BC4240, Solarbio, Beijing, China). In summary, liver extracts were incubated in a reaction buffer comprising 20 mM citrate, 10 mM MgCl₂, 10 mM DTT, 0.5 U/ml of malic dehydrogenase, 0.33 mM CoASH, and 0.14 mM NADH, both in the presence and absence of 5 mM ATP. The quantity of oxaloacetate produced by ACLY catalysis was determined by measuring the alteration in absorbance at 340 nm, which corresponds to the depletion of NADH during the MDH-catalyzed reaction. After accounting for background variations in absorbance in the absence of ATP, the relative ACL activities were computed by normalizing the data to the weight of the liver tissue.

ACLY [2] = target: T1, ACLY; assay: Cellular thermal shift assay in AML12 cell lysates; type: binding; design: The AML12 cell lysates were separated into two portions; endogenous in cells; host or cells: AML12; details: 5 µM, 50 to 90 °C
Method: The AML12 cell lysates were separated into two portions; one served as a control, while the other was exposed to 5 µM ISOGK for 1 h at room temperature. Subsequently, the lysates were individually heated at the specified temperatures (50 to 90 °C) for 5 min and allowed to cool at room temperature. Following this, the lysates underwent centrifugation at 12,000 rpm for 10 min at 4 °C, after which the supernatants were analyzed through Western blot.

With COc1ccc(-c2cc(=O)c3c(O)cc(O)c(-c4cc(-c5cc(=O)c6c(O)cc(O)cc6o5)ccc4OC)c3o2)cc1 [ISOGK, Isoginkgetin] the “ACLY enzyme activity in liver tissue” value (ACLY [1]) was “significantly inhibits ACLY activity” and the “thermal stabilization of ACLY” value (ACLY [2]) was “stabilized the ACLY protein”.
